Assay results published in patent US8580965B2, “Substituted sulfonamide compounds” (Gruenenthal GmbH, priority 2006, dated 2013).
Where a name gives a salt, the structure may show the parent alone.

Key:
[1] = target: T1, human B1R receptor (bradykinin 1 receptor) (Homo sapiens, UniProt P46663); test: FLIPR Ca2+ assay (Fluo-4) on CHO K1 cells stably transfected with the human B1R gene; % activation and % inhibition at 10 μM; format: cell-based; settings: CHO-K1, test substance 10 μM; CHO K1 hB1R cells; Ca2+ inflow after 0.5 nM Lys-Des-Arg9-bradykinin; read-out: B1R antagonism, human [10 μM] % inhibition
T1 construct: host or cells: CHO K1 cells (hB1R cells)
T1 sequence (P46663 1-353): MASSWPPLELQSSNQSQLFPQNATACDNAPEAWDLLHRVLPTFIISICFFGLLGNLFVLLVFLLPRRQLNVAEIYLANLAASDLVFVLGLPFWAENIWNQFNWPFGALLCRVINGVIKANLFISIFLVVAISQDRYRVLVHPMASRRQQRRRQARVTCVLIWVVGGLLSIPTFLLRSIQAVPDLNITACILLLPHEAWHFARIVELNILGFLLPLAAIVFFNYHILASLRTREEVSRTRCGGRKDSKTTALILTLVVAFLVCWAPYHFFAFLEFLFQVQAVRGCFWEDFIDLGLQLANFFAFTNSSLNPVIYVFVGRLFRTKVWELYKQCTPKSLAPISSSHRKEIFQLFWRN
Summary of the method: (§1)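 Fluo-4 Ca2+ flux on FLIPR in stable hB1R or rB1R CHO K1 lines, two additions. Agonism: 10 µM compound versus 0.5 nM Lys-Des-Arg9-BK (human) or 100 nM Des-Arg9-BK (rat); antagonism: same agonists applied 10 min later, suppression expressed against maximum achievable inhibition.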

[2] = target: T2, B1R receptor of the rat (bradykinin 1 receptor) (Rattus norvegicus, UniProt P97583); test: FLIPR Ca2+ assay (Fluo-4) on CHO K1 cells stably transfected with the B1R gene of the rat; % activation and % inhibition at 10 μM; format: cell-based; settings: CHO-K1, test substance 10 μM; CHO K1 rB1R cells; Ca2+ inflow after 100 nM Des-Arg9-bradykinin; read-out: B1R antagonism, rat [10 μM] % inhibition
T2 construct: host or cells: CHO K1 cells (rB1R cells)
T2 sequence (P97583 1-337): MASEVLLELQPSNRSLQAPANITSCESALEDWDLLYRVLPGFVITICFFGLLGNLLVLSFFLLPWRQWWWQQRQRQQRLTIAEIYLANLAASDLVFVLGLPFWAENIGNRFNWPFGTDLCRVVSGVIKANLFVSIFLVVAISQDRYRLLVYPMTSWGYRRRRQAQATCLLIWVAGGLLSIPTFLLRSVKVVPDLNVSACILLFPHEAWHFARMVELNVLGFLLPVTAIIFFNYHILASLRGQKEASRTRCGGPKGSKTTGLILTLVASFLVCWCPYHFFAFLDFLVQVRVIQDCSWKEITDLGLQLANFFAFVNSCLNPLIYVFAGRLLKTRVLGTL
Summary of the method: as §1

Compound | inhibition at 10 µM [1] | inhibition at 10 µM [2]
Cc1cc(S(=O)(=O)N(C)CCOCC(=O)N2CCC(O)(c3ccc(Br)cc3)CC2)c(C)s1 [Example 257, N-(2-(2-(4-(4-bromophenyl)-4-hydroxypiperidin-1-yl)-2-oxoethoxy)ethyl)-N,2,5-trimethylthiophene-3-sulfonamide] | 49.4% | 101%
Cc1cc(S(=O)(=O)N(C)CCOCC(=O)N2CCC(O)(c3cccc(C(F)(F)F)c3)CC2)c(C)s1 [Example 258, N-(2-(2-(4-hydroxy-4-(3-(trifluoromethyl)phenyl)piperidin-1-yl)-2-oxoethoxy)ethyl)-N,2,5-trimethylthiophene-3-sulfonamide] | 71.5% | 96.1%
Cc1cc(S(=O)(=O)N(C)CCOCC(=O)N2CCC(O)(c3ccc(Cl)c(C(F)(F)F)c3)CC2)c(C)s1 [Example 259, N-(2-(2-(4-(4-chloro-3-(trifluoromethyl)phenyl)-4-hydroxypiperidin-1-yl)-2-oxoethoxy)ethyl)-N,2,5-trimethylthiophene-3-sulfonamide] | 94% | 93.3%
CN(CCOCC(=O)N1CCC(O)(c2ccc(Cl)c(C(F)(F)F)c2)CC1)S(=O)(=O)c1cc(Cl)sc1Cl [Example 263, 2,5-dichloro-N-(2-(2-(4-(4-chloro-3-(trifluoromethyl)phenyl)-4-hydroxypiperidin-1-yl)-2-oxoethoxy)ethyl)-N-methylthiophene-3-sulfonamide] | 42.9% | 70.5%
COc1cc(C)cc(C)c1S(=O)(=O)N1CCC(OCC(=O)N2CCC(O)(c3ccc(Br)cc3)CC2)C1 (stereo not shown) [Example 264, 1-(4-(4-bromophenyl)-4-hydroxypiperidin-1-yl)-2-(1-(2-methoxy-4,6-dimethylphenylsulfonyl)pyrrolidin-3-yloxy)ethanone] | 64.5% | 4.5%
COc1cc(C)cc(C)c1S(=O)(=O)N1CCC(OCC(=O)N2CCC(O)(Cc3ccccc3)CC2)C1 (stereo not shown) [Example 265, 1-(4-benzyl-4-hydroxypiperidin-1-yl)-2-(1-(2-methoxy-4,6-dimethylphenylsulfonyl)pyrrolidin-3-yloxy)ethanone] | 54.1% | 29.5%
COc1cc(C)c(S(=O)(=O)N(CCOCC(=O)N2CCC(O)(c3cccs3)CC2)CC(C)C)c(C)c1C [Example 269, N-(2-(2-(4-hydroxy-4-(thiophen-2-yl)piperidin-1-yl)-2-oxoethoxy)ethyl)-N-isobutyl-4-methoxy-2,3,6-trimethylphenylsulfonamide] | 98.4% | 99.1%
COc1cc(C)c(S(=O)(=O)N(C)CCOCCC(=O)N2CCC(O)(c3ccc(Cl)cc3)CC2)c(C)c1 [Example 275, N-(2-(3-(4-(4-chlorophenyl)-4-hydroxypiperidin-1-yl)-3-oxopropoxy)ethyl)-4-methoxy-N,2,6-trimethylphenylsulfonamide] | 100% | 92.4%
COc1cc(C)c(S(=O)(=O)N(C)CCOCCC(=O)N2CCC(O)(c3ccccc3)CC2)c(C)c1 [Example 276, N-(2-(3-(4-hydroxy-4-phenylpiperidin-1-yl)-3-oxopropoxy)ethyl)-4-methoxy-N,2,6-trimethylphenylsulfonamide] | 70.7% | 88.3%
COc1cc(C)c(S(=O)(=O)N(C)CCOCCC(=O)N2CCC(O)(Cc3ccccc3)CC2)c(C)c1 [Example 277, N-(2-(3-(4-benzyl-4-hydroxypiperidin-1-yl)-3-oxopropoxy)ethyl)-4-methoxy-N,2,6-trimethylphenylsulfonamide] | 86.8% | 88.2%
COc1cc(C)c(S(=O)(=O)N(C)CCOCCC(=O)N2CCC(O)(c3ccc(Cl)c(C(F)(F)F)c3)CC2)c(C)c1 [Example 278, N-(2-(3-(4-(4-chloro-3-(trifluoromethyl)phenyl)-4-hydroxypiperidin-1-yl)-3-oxopropoxy)ethyl)-4-methoxy-N,2,6-trimethylphenylsulfonamide] | 96.4% | 99.9%
COc1cc(C)c(S(=O)(=O)N(C)CCOCC(=O)N2CCC(O)(Cc3cccnc3)CC2)c(C)c1 [Example 279, N-(2-(2-(4-hydroxy-4-(pyridin-3-ylmethyl)piperidin-1-yl)-2-oxoethoxy)ethyl)-4-methoxy-N,2,6-trimethylphenylsulfonamide hydrochloride] | 103% | 105%

Continued, values first:

inhibition at 10 µM [1] | inhibition at 10 µM [2] | Compound
73.1% | 91.1% | CN(CCOCC(=O)N1CCC(O)(c2ccc(Cl)cc2)CC1)S(=O)(=O)c1cc(Cl)sc1Cl [Example 260, 2,5-dichloro-N-(2-(2-(4-(4-chlorophenyl)-4-hydroxypiperidin-1-yl)-2-oxoethoxy)ethyl)-N-methylthiophene-3-sulfonamide]
87.8% | 98.5% | CN(CCOCC(=O)N1CCC(O)(c2ccc(Br)cc2)CC1)S(=O)(=O)c1cc(Cl)sc1Cl [Example 261, N-(2-(2-(4-(4-bromophenyl)-4-hydroxypiperidin-1-yl)-2-oxoethoxy)ethyl)-2,5-dichloro-N-methylthiophene-3-sulfonamide]
73.6% | 94.2% | CN(CCOCC(=O)N1CCC(O)(c2cccc(C(F)(F)F)c2)CC1)S(=O)(=O)c1cc(Cl)sc1Cl [Example 262, 2,5-dichloro-N-(2-(2-(4-hydroxy-4-(3-(trifluoromethyl)phenyl)piperidin-1-yl)-2-oxoethoxy)ethyl)-N-methylthiophene-3-sulfonamide]
21.9% | 78.6% | O=C(COCC1CCCN1S(=O)(=O)c1cc(Cl)sc1Cl)N1CCC(O)(c2cccs2)CC1 (stereo not shown) [Example 266, 2-((1-(2,5-dichlorothiophen-3-ylsulfonyl)pyrrolidin-2-yl)methoxy)-1-(4-hydroxy-4-(thiophen-2-yl)piperidin-1-yl)ethanone]
90.6% | 97.8% | COc1cc(C)c(S(=O)(=O)N2CCC(COCC(=O)N3CCC(O)(c4cccs4)CC3)C2)c(C)c1 (stereo not shown) [Example 267, 1-(4-hydroxy-4-(thiophen-2-yl)piperidin-1-yl)-2-((1-(4-methoxy-2,6-dimethylphenylsulfonyl)pyrrolidin-3-yl)methoxy)ethanone]
99.1% | 98.8% | COc1cc(C)c(S(=O)(=O)N(CCOCC(=O)N2CCC(O)(c3cccs3)CC2)CC2CC2)c(C)c1C [Example 268, N-(cyclopropylmethyl)-N-(2-(2-(4-hydroxy-4-(thiophen-2-yl)piperidin-1-yl)-2-oxoethoxy)ethyl)-4-methoxy-2,3,6-trimethylphenylsulfonamide]
93.9% | 99.7% | O=C(COCC1CCCCN1S(=O)(=O)c1c(Cl)cccc1Cl)N1CCC(O)(c2cccs2)CC1 (stereo not shown) [Example 270, 2-((1-(2,6-dichlorophenylsulfonyl)piperidin-2-yl)methoxy)-1-(4-hydroxy-4-(thiophen-2-yl)piperidin-1-yl)ethanone]
41.9% | 78.3% | O=C(COCC1CCCCN1S(=O)(=O)c1cc(Cl)sc1Cl)N1CCC(O)(c2ccccc2)CC1 (stereo not shown) [Example 271, 2-((1-(2,5-dichlorothiophen-3-ylsulfonyl)piperidin-2-yl)methoxy)-1-(4-hydroxy-4-phenylpiperidin-1-yl)ethanone]
54.1% | 24.1% | O=C(COCC1CCN(S(=O)(=O)c2c(Cl)cc(Cl)cc2Cl)C1)N1CCC(O)(c2ccc(Cl)cc2)CC1 (stereo not shown) [Example 272, 1-(4-(4-chlorophenyl)-4-hydroxypiperidin-1-yl)-2-((1-(2,4,6-trichlorophenylsulfonyl)pyrrolidin-3-yl)methoxy)ethanone]
103% | 101% | O=C(COCC1CCCCN1S(=O)(=O)c1csc2ccccc12)N1CCC(O)(c2cccnc2)CC1 (stereo not shown) [Example 273, 2-((1-(benzo[b]thiophen-3-ylsulfonyl)piperidin-2-yl)methoxy)-1-(4-hydroxy-4-(pyridin-3-yl)piperidin-1-yl)ethanone]
96.4% | 76% | O=C(COCC1CCCCN1S(=O)(=O)c1csc2ccccc12)N1CCC(O)(Cc2ccccc2)CC1 (stereo not shown) [Example 274, 2-((1-(benzo[b]thiophen-3-ylsulfonyl)piperidin-2-yl)methoxy)-1-(4-benzyl-4-hydroxypiperidin-1-yl)ethanone]
